Usually LD50 stands for the dose at which mortality reaches 50%. For orientation: GI50 means the concentration giving 50% growth inhibition.

In series [1] the test system is Ehrlich ascites carcinoma. The experiment in a line: Antitumor effect on Ehrlich ascites carcinoma, survival. Type of series: in vivo, ICR mice. As to conditions: 20 mg/kg/day intraperitoneal, 9 days. As to the method: Antitumor effect was measured on Ehrlich ascites carcinoma. Ehrlich ascites carcinoma cells were intraperitoneally administered to ICR mice. After 24 hours, 20 mg/kg/day of the compound whose synthesis is illustrated in Example 1 and Example 2 were each administered to the mice by intraperitoneal route for 9 days. The periods of survival of these animals were examined.

Series [2] can be described thus: Acute toxicity. Conditions: mouse, in vivo, 4 week old male mice. As to the method:
(§1) The acute toxicity of one typical compound of this invention was measured by administering the compound to a group of 4 week old male mice.

Series [3] relates to male mice. In words: Acute toxicity. Conditions: mouse, in vivo. As to the method: as §1
Series [4] deals with 60 human tumor cell lines. The experiment in a line: National Cancer Institute in vitro tumor cell screen. Type of series: cell-based.
Method: In the assay, a candidate compound was tested for its ability to inhibit tumor cell growth. A dose response curve of percent cell growth versus compound concentration over a concentration range of 10^-9 to 10^-4 molar of each test compound was established to determine GI50, TGI and LC50. GI50 and TGI denote that cell proliferation was inhibited by 50% and 100% respectively. LC50 denotes that 50% of cell population was killed. The selectivity of a compound towards a certain type of tumor cell line was evaluated from mean graphs which compared the relative drug concentrations required to produce the same level of response (e.g. GI50) in each cell line. A differential cellular sensitivity index was calculated by taking the difference between the logarithm of GI50 (or TGI, LC50) value for a cell line versus the arithmetic mean of the logarithm of GI50 (or TGI, LC 50) value for all cell line responses measured for a given compound.

In the case of `CCCC/C=C1\CCC(CN(C)C)C1=O.Cl` (stereo not drawn) [Compound 1, 2-Dimethylaminomethyl-5-(E)-pentylidene cyclopentanone hydrochloride], the “average number of days of survival” value in series [1] turned out to be 41 ± 5.4 days. Further, the “increase of life span (ILS %) over the control” value in series [1] was 173.8%. Also, the “ratio of survival for more than 40 days” value in series [1] is listed as 9/11. The LD50 was 107 mg/kg in series [2] (ip, intraperitoneal); 52 mg/kg in series [2] (iv, intraveneous); 486 mg/kg in series [2] (oral). The “acute toxicity (in words)” value in series [3] is “low acute toxicity”. Also, in series [4] (Homo sapiens, molar concentration, 50% inhibition of cell proliferation, mean of all cell lines, read-out: Mean response of all cell lines (Log) GI50 (converted)), the GI50 is 1580 nM. For the same compound, the IC100 in series [4] (Homo sapiens, molar concentration, 100% inhibition of cell proliferation, mean of all cell lines, read-out: Mean response of all cell lines (Log) TGI (converted)) is 3.8 µM. Also, the “Differential Cellular Sensitivity GI50, tumor cell line subpanels” value in series [4] (subpanels for GI50) is on record as “LEU;COL”. Moreover, in series [4] (subpanels for LC50), the “Differential Cellular Sensitivity LC50, tumor cell line subpanels” value is “COL;LNS;REN”. In addition, in series [4] (subpanels for TGI), the “Differential Cellular Sensitivity TGI, tumor cell line subpanels” value is recorded as “COL;REN”.

For the origin of these results see US5250735A, “2-(N-substituted-aminoalkyl)-5-(E)-alkylidene cyclopentanones, 2-(N-substituted-aminoalkyl)-5-(E)-arylalkylidene cyclopentanones, and derivatives thereof” (priority 1992, dated 1993).
